Data published in publication PMC5218480 (PLoS ONE, 2017).

System: MV-4-11 cells
Experiment: Gene expression microarray analysis (Affymetrix PrimeView) and GSEA
Type: cell-based, human
Parameters: RFU PODN (11730768_x_at) / Fold change /veh PODN (11730768_x_at) / RFU LINC00158 (11744669_a_at) / Fold change /veh LINC00158 (11744669_a_at) / RFU DUSP10 (11751237_a_at) / Fold change /veh DUSP10 (11751237_a_at) / RFU ID3 (11757404_x_at) / Fold change /veh ID3 (11757404_x_at) / RFU PLEKHG5 (11737974_s_at) / Fold change /veh PLEKHG5 (11737974_s_at) / RFU LRRC4B (11730491_at) / Fold change /veh LRRC4B (11730491_at) / RFU GIMAP4 (11747438_a_at) / Fold change /veh GIMAP4 (11747438_a_at) / RFU KRT8 (11758183_x_at) / Fold change /veh KRT8 (11758183_x_at) / RFU CNN1 (11734310_a_at) / Fold change /veh CNN1 (11734310_a_at) / RFU VPS37D (11726825_at) / Fold change /veh VPS37D (11726825_at) / RFU C10orf10 (11716522_x_at) / Fold change /veh C10orf10 (11716522_x_at) / RFU KIR2DL2 /// KIR2DL4 /// KIR2DL5A /// KIR2DL5B /// KIR2DS1 /// KIR2DS2 /// KIR2DS3 /// KIR2DS4 /// KIR3DL3 /// KIR3DL3 /// KIR3DS1 (11738374_at) / Fold change /veh KIR2DL2 /// KIR2DL4 /// KIR2DL5A /// KIR2DL5B /// KIR2DS1 /// KIR2DS2 /// KIR2DS3 /// KIR2DS4 /// KIR3DL3 /// KIR3DL3 /// KIR3DS1 (11738374_at) / RFU C1QL1 (11718748_at) / Fold change /veh C1QL1 (11718748_at) / RFU TMPRSS4 (11747572_a_at) / Fold change /veh TMPRSS4 (11747572_a_at) / RFU HAMP (11756126_x_at) / Fold change /veh HAMP (11756126_x_at) / RFU RNFT2 (11725882_a_at) / Fold change /veh RNFT2 (11725882_a_at) / RFU NR4A2 (11747474_a_at) / Fold change /veh NR4A2 (11747474_a_at) / RFU ABCC12 (11746883_a_at) / Fold change /veh ABCC12 (11746883_a_at) / RFU TMEM136 (11760407_x_at) / Fold change /veh TMEM136 (11760407_x_at) / RFU CLDN22 /// WWC2 (11732394_at) / Fold change /veh CLDN22 /// WWC2 (11732394_at) / RFU HLA-DPB1 (11760878_x_at) / Fold change /veh HLA-DPB1 (11760878_x_at) / RFU SPINT1 (11716480_a_at) / Fold change /veh SPINT1 (11716480_a_at) / RFU GAP43 (11754022_s_at) / Fold change /veh GAP43 (11754022_s_at) / RFU A4GNT (11735810_at) / Fold change /veh A4GNT (11735810_at) / RFU PRB3 (11715151_x_at) / Fold change /veh PRB3 (11715151_x_at) / RFU TUBB4B (11761932_at) / Fold change /veh TUBB4B (11761932_at) / RFU CAPN14 (11732068_a_at) / Fold change /veh CAPN14 (11732068_a_at) / RFU TMCC2 (11721928_a_at) / Fold change /veh TMCC2 (11721928_a_at) / RFU IRGQ (11745062_a_at) / Fold change /veh IRGQ (11745062_a_at) / RFU FAM174B (11720279_a_at) / Fold change /veh FAM174B (11720279_a_at) / RFU TMPRSS4 (11748680_a_at) / Fold change /veh TMPRSS4 (11748680_a_at) / RFU FAM212B (11763350_a_at) / Fold change /veh FAM212B (11763350_a_at) / RFU PLEKHG5 (11743358_a_at) / Fold change /veh PLEKHG5 (11743358_a_at) / RFU ZSCAN30 (11745921_a_at) / Fold change /veh ZSCAN30 (11745921_a_at) / RFU CMKLR1 (11741424_a_at) / Fold change /veh CMKLR1 (11741424_a_at) / RFU LOC101060620 /// MAPK8IP1 (11723275_at) / Fold change /veh LOC101060620 /// MAPK8IP1 (11723275_at) / RFU SPTSSB (11747773_x_at) / Fold change /veh SPTSSB (11747773_x_at) / RFU PRSS12 (11739890_at) / Fold change /veh PRSS12 (11739890_at) / RFU BIN1 (11741810_x_at) / Fold change /veh BIN1 (11741810_x_at) / RFU WNT11 (11732464_a_at) / Fold change /veh WNT11 (11732464_a_at) / RFU C10orf10 (11716521_a_at) / Fold change /veh C10orf10 (11716521_a_at) / RFU C5orf56 (11738089_at) / Fold change /veh C5orf56 (11738089_at) / RFU CYB561 (11721691_x_at) / Fold change /veh CYB561 (11721691_x_at) / RFU ANKRD19P (11752326_a_at) / Fold change /veh ANKRD19P (11752326_a_at) / RFU OR2T12 /// OR2T33 /// OR2T8 (11738714_s_at) / Fold change /veh OR2T12 /// OR2T33 /// OR2T8 (11738714_s_at) / RFU VCAN (11748164_a_at) / Fold change /veh VCAN (11748164_a_at) / RFU JSRP1 (11732532_at) / Fold change /veh JSRP1 (11732532_at) / RFU KRTAP10-11 (11738290_x_at) / Fold change /veh KRTAP10-11 (11738290_x_at) / RFU MYO3A (11730013_a_at) / Fold change /veh MYO3A (11730013_a_at) / RFU EBF3 (11725865_a_at) / Fold change /veh EBF3 (11725865_a_at) / RFU CAMK2N1 (11719241_x_at) / Fold change /veh CAMK2N1 (11719241_x_at) / RFU C5orf56 (11738088_a_at) / Fold change /veh C5orf56 (11738088_a_at) / RFU OLFML3 (11715873_a_at) / Fold change /veh OLFML3 (11715873_a_at) / RFU LOC100653217 /// NTM (11731650_a_at) / Fold change /veh LOC100653217 /// NTM (11731650_a_at) / RFU MAPK11 (11762145_a_at) / Fold change /veh MAPK11 (11762145_a_at) / RFU FIZ1 (11724087_x_at) / Fold change /veh FIZ1 (11724087_x_at) / RFU OASL (11726364_x_at) / Fold change /veh OASL (11726364_x_at) / RFU SOX15 (11748057_x_at) / Fold change /veh SOX15 (11748057_x_at) / RFU CD79A (11719716_a_at) / Fold change /veh CD79A (11719716_a_at) / RFU HIST1H1D (11736915_at) / Fold change /veh HIST1H1D (11736915_at) / RFU CASKIN2 (11723855_a_at) / Fold change /veh CASKIN2 (11723855_a_at) / RFU LOC730098 (11760151_x_at) / Fold change /veh LOC730098 (11760151_x_at) / RFU OR4N2 (11742367_at) / Fold change /veh OR4N2 (11742367_at) / RFU PRRT2 (11749266_a_at) / Fold change /veh PRRT2 (11749266_a_at) / RFU SNX32 (11753110_a_at) / Fold change /veh SNX32 (11753110_a_at) / RFU CDHR5 (11726645_a_at) / Fold change /veh CDHR5 (11726645_a_at) / RFU RCAN1 (11760418_a_at) / Fold change /veh RCAN1 (11760418_a_at) / RFU FAM167A (11723789_a_at) / Fold change /veh FAM167A (11723789_a_at) / RFU FAM26E (11764081_at) / Fold change /veh FAM26E (11764081_at) / RFU ISYNA1 (11749810_s_at) / Fold change /veh ISYNA1 (11749810_s_at) / RFU ACY1 (11761880_at) / Fold change /veh ACY1 (11761880_at) / RFU 11764098_at / Fold change /veh 11764098_at / RFU SAMD14 (11745864_x_at) / Fold change /veh SAMD14 (11745864_x_at) / RFU NPB (11741838_a_at) / Fold change /veh NPB (11741838_a_at) / RFU TMPRSS6 (11731388_a_at) / Fold change /veh TMPRSS6 (11731388_a_at) / RFU KRTAP10-2 (11738614_at) / Fold change /veh KRTAP10-2 (11738614_at) / RFU ARHGAP8 /// PRR5-ARHGAP8 (11727945_x_at) / Fold change /veh ARHGAP8 /// PRR5-ARHGAP8 (11727945_x_at) / RFU KRTAP5-7 /// NADSYN1 (11734609_at) / Fold change /veh KRTAP5-7 /// NADSYN1 (11734609_at) / RFU RASL12 (11751679_a_at) / Fold change /veh RASL12 (11751679_a_at) / RFU CDKN2B (11736163_a_at) / Fold change /veh CDKN2B (11736163_a_at) / RFU PRF1 (11729649_at) / Fold change /veh PRF1 (11729649_at) / RFU, ZNF638 /// ZNF638-IT1 / Fold change vs veh, ZNF638 /// ZNF638-IT1 / RFU, PANK3 / Fold change vs veh, PANK3 / RFU, SH3YL1 / Fold change vs veh, SH3YL1 / RFU, ZEB2 / Fold change vs veh, ZEB2 / RFU, NRIP1 / Fold change vs veh, NRIP1 / RFU, PTTG1IP / Fold change vs veh, PTTG1IP / RFU, CAPN2 / Fold change vs veh, CAPN2 / RFU, MED14 / Fold change vs veh, MED14 / RFU, SNORA58 / Fold change vs veh, SNORA58 / RFU, C1orf63 / Fold change vs veh, C1orf63 / RFU, LRRFIP1 / Fold change vs veh, LRRFIP1 / RFU, NDUFAF7 / Fold change vs veh, NDUFAF7 / RFU, SLC12A2 / Fold change vs veh, SLC12A2 / RFU, IBTK / Fold change vs veh, IBTK / RFU, ESF1 / Fold change vs veh, ESF1 / Fold change vs veh, TMEM50B / RFU, TAOK1 / Fold change vs veh, TAOK1 / RFU, ACBD3 / Fold change vs veh, ACBD3 / RFU, TMA16 / Fold change vs veh, TMA16 / RFU, RWDD3 / Fold change vs veh, RWDD3 / RFU, BCAT1 / Fold change vs veh, BCAT1 / RFU, EDEM3 / Fold change vs veh, EDEM3 / RFU, TMEM33 / Fold change vs veh, TMEM33 / RFU, WDR75 / Fold change vs veh, WDR75 / RFU, AHCTF1 / Fold change vs veh, AHCTF1 / RFU, TFRC / Fold change vs veh, TFRC / RFU, ZDHHC17 / Fold change vs veh, ZDHHC17 / RFU, NOM1 / Fold change vs veh, NOM1 / RFU, ARL8B / Fold change vs veh, ARL8B / RFU, ZBTB11 / Fold change vs veh, ZBTB11 / RFU, TAMM41 / Fold change vs veh, TAMM41 / RFU, KIAA1704 /// LOC100996395 / Fold change vs veh, KIAA1704 /// LOC100996395 / RFU, ING1 / Fold change vs veh, ING1 / RFU, TRMT61B / Fold change vs veh, TRMT61B / RFU, FUBP3 / Fold change vs veh, FUBP3 / RFU, TP53 / Fold change vs veh, TP53 / RFU, TNKS2 / Fold change vs veh, TNKS2 / RFU, ZFP14 / Fold change vs veh, ZFP14 / RFU, ACTR2 / Fold change vs veh, ACTR2 / RFU, PPP3R1 / Fold change vs veh, PPP3R1 / RFU, PIK3R1 / Fold change vs veh, PIK3R1 / RFU, HNRNPA1 / Fold change vs veh, HNRNPA1 / RFU, RNF170 / Fold change vs veh, RNF170 / RFU, ZNF28 / Fold change vs veh, ZNF28 / RFU, RNGTT / Fold change vs veh, RNGTT / RFU, OGT / Fold change vs veh, OGT / RFU, BRD1 / Fold change vs veh, BRD1 / RFU, MARS / Fold change vs veh, MARS / RFU, ZNF655 / Fold change vs veh, ZNF655 / RFU, FAHD1 / Fold change vs veh, FAHD1 / RFU, BDP1 / Fold change vs veh, BDP1 / RFU, LRRCC1 / Fold change vs veh, LRRCC1 / RFU, ARID1A / Fold change vs veh, ARID1A / RFU, ZNF146 / Fold change vs veh, ZNF146 / RFU, ZNF330 / Fold change vs veh, ZNF330 / RFU, GPN3 / Fold change vs veh, GPN3 / RFU, C9orf123 / Fold change vs veh, C9orf123 / RFU, N4BP2L2 / Fold change vs veh, N4BP2L2 / RFU, ARFIP1 / Fold change vs veh, ARFIP1 / RFU, FAM179B / Fold change vs veh, FAM179B / RFU, BCL10 / Fold change vs veh, BCL10 / RFU, UHRF1BP1L / Fold change vs veh, UHRF1BP1L / RFU, BET1 / Fold change vs veh, BET1 / RFU, CNOT2 / Fold change vs veh, CNOT2 / RFU, ZNF268 / Fold change vs veh, ZNF268 / Fold change vs veh, ZNF507 / RFU, DGCR2 / Fold change vs veh, DGCR2 / RFU, WDSUB1 / Fold change vs veh, WDSUB1 / Fold change vs veh, HSP90B1 /// MIR3652 / RFU, ADSS / Fold change vs veh, ADSS / RFU, GK / Fold change vs veh, GK / RFU, ZNF148 / Fold change vs veh, ZNF148 / RFU, TAF9 / Fold change vs veh, TAF9 / RFU, SLC1A5 / Fold change vs veh, SLC1A5 / RFU, SLMO2 / Fold change vs veh, SLMO2 / RFU, ABCC4 / Fold change vs veh, ABCC4 / RFU, LOC101060439 /// RAP1B / Fold change vs veh, LOC101060439 /// RAP1B / RFU, RFX7 / Fold change vs veh, RFX7 / RFU, GTPBP10 / Fold change vs veh, GTPBP10 / RFU, CNEP1R1 / Fold change vs veh, CNEP1R1 / RFU, BIVM-ERCC5 /// ERCC5 / Fold change vs veh, BIVM-ERCC5 /// ERCC5 / RFU, ILF3 / Fold change vs veh, ILF3 / RFU 11762660_at / Fold change /veh 11762660_at / RFU VCAN (11757783_s_at) / Fold change /veh VCAN (11757783_s_at) / RFU DDX43 (11728927_at) / Fold change /veh DDX43 (11728927_at) / RFU KRT8 (11758188_x_at) / Fold change /veh KRT8 (11758188_x_at) / RFU NKD1 (11759106_at) / Fold change /veh NKD1 (11759106_at) / RFU SRD5A1 (11742802_a_at) / Fold change /veh SRD5A1 (11742802_a_at) / RFU TPSAB1 /// TPSB2 (11721975_s_at) / Fold change /veh TPSAB1 /// TPSB2 (11721975_s_at) / RFU GSTM3 (11746129_a_at) / Fold change /veh GSTM3 (11746129_a_at) / RFU IL23R (11737362_x_at) / Fold change /veh IL23R (11737362_x_at) / RFU TMEM51 (11727254_a_at) / Fold change /veh TMEM51 (11727254_a_at) / RFU PIWIL2 (11732686_x_at) / Fold change /veh PIWIL2 (11732686_x_at) / RFU ORM1 (11744905_x_at) / Fold change /veh ORM1 (11744905_x_at) / RFU CCDC152 (11743942_at) / Fold change /veh CCDC152 (11743942_at) / RFU ECM1 (11717891_a_at) / Fold change /veh ECM1 (11717891_a_at) / RFU IL23R (11748794_a_at) / Fold change /veh IL23R (11748794_a_at) / RFU TNFAIP8L3 (11732012_x_at) / Fold change /veh TNFAIP8L3 (11732012_x_at) / RFU MBOAT4 (11741988_at) / Fold change /veh MBOAT4 (11741988_at) / RFU 11764193_at / Fold change /veh 11764193_at / RFU TMEM53 (11763286_at) / Fold change /veh TMEM53 (11763286_at) / RFU MAGEB2 (11727129_at) / Fold change /veh MAGEB2 (11727129_at) / RFU TMEM200A (11744735_a_at) / Fold change /veh TMEM200A (11744735_a_at) / RFU CCDC152 (11751479_a_at) / Fold change /veh CCDC152 (11751479_a_at) / RFU FAM211A (11726209_a_at) / Fold change /veh FAM211A (11726209_a_at) / RFU RGS16 (11746705_a_at) / Fold change /veh RGS16 (11746705_a_at) / RFU VCAN (11755009_s_at) / Fold change /veh VCAN (11755009_s_at) / RFU RHOB (11743442_s_at) / Fold change /veh RHOB (11743442_s_at) / RFU RGS16 (11720943_a_at) / Fold change /veh RGS16 (11720943_a_at) / RFU RGS16 (11720944_at) / Fold change /veh RGS16 (11720944_at) / RFU, VPS4B / Fold change vs veh, VPS4B / RFU, CREB1 / Fold change vs veh, CREB1 / RFU, DNAJC13 / Fold change vs veh, DNAJC13 / RFU, GNAQ / Fold change vs veh, GNAQ / RFU, CDK5R1 / Fold change vs veh, CDK5R1 / RFU, ZRANB3 / Fold change vs veh, ZRANB3 / RFU, CUL4A / Fold change vs veh, CUL4A / RFU, CCNY / Fold change vs veh, CCNY / RFU, UFL1 / Fold change vs veh, UFL1 / RFU, COG3 / Fold change vs veh, COG3 / RFU, DIAPH2 / Fold change vs veh, DIAPH2 / RFU, SKA2 / Fold change vs veh, SKA2 / RFU, AFF3 / Fold change vs veh, AFF3 / RFU, LMF1 / Fold change vs veh, LMF1 / RFU, IPO11 / Fold change vs veh, IPO11 / RFU, DFFB / Fold change vs veh, DFFB / RFU, FOXP1 / Fold change vs veh, FOXP1 / RFU, CARD8 / Fold change vs veh, CARD8 / RFU, STRN3 / Fold change vs veh, STRN3 / RFU, ADK / Fold change vs veh, ADK / RFU, RASSF2 / Fold change vs veh, RASSF2 / RFU, WIPF1 / Fold change vs veh, WIPF1 / RFU, LARP1B / Fold change vs veh, LARP1B / RFU, RASA1 / Fold change vs veh, RASA1 / RFU, RB1 / Fold change vs veh, RB1 / RFU, PPFIA1 / Fold change vs veh, PPFIA1 / RFU, MAT2A / Fold change vs veh, MAT2A / RFU, CCT5 / Fold change vs veh, CCT5 / RFU, WDR92 / Fold change vs veh, WDR92 / RFU, CUX1 / Fold change vs veh, CUX1 / RFU, TTC7A / Fold change vs veh, TTC7A / RFU, TMEM135 / Fold change vs veh, TMEM135 / RFU, DEPTOR / Fold change vs veh, DEPTOR / RFU, CPM / Fold change vs veh, CPM / RFU, DNAJB6 / Fold change vs veh, DNAJB6 / RFU, CACNA2D3 / Fold change vs veh, CACNA2D3 / RFU, DTX4 / Fold change vs veh, DTX4 / RFU, TFCP2 / Fold change vs veh, TFCP2 / RFU, GMCL1 /// GMCL1P1 / Fold change vs veh, GMCL1 /// GMCL1P1 / RFU, AEBP2 / Fold change vs veh, AEBP2 / RFU, SNHG1 /// SNORD22 /// SNORD25 /// SNORD26 /// SNORD27 /// SNORD28 /// SNORD29 /// SNORD31 / Fold change vs veh, SNHG1 /// SNORD22 /// SNORD25 /// SNORD26 /// SNORD27 /// SNORD28 /// SNORD29 /// SNORD31 / Fold change (Aza/veh), C12orf56 (ProbeSet 11735607_a_at) / Fold change (ACY-1035/veh), C12orf56 (ProbeSet 11735607_a_at) / Fold change (Aza/veh), FGFR1OP (ProbeSet 11751329_s_at) / Fold change (ACY-1035/veh), FGFR1OP (ProbeSet 11751329_s_at) / Fold change (Aza/veh), VPS36 (ProbeSet 11739960_a_at) / Fold change (ACY-1035/veh), VPS36 (ProbeSet 11739960_a_at) / RFU SYPL1 (11715823_x_at) / Fold change /veh SYPL1 (11715823_x_at) / RFU IGFBP7 (11715501_s_at) / Fold change /veh IGFBP7 (11715501_s_at) / RFU REEP3 (11722064_at) / Fold change /veh REEP3 (11722064_at) / RFU IGLL1 (11728026_x_at) / Fold change /veh IGLL1 (11728026_x_at): dose or concentration left out as unconfirmed
Conditions: ProbeSet 11721521_at; LIST B

Nc1ccc(-c2cccs2)cc1NC(=O)c1ccc2c(c1)cc(C1CC1)n2CCN1CCOCC1 [ACY-1035]
RFU, ZDHHC17: 49.20 RFU
